Laboratory results: patent US20180110799A1, “Compositions and Methods for the Inhibition of Chondrogenesis” (The Children's Hospital of Philadelphia, priority 2014, published 2018)

Experiments:
heparanase mRNA = assay: Semi-quantitative RT-PCR of heparanase mRNA in micromass cultures; type: cell-based, mouse
Description: (§1) Micromass cultures were prepared from the mesenchymal cells of E11.5 mouse embryo limb buds (Ahrens et al. (1979) Dev. Biol., 69:436-50). Dissociated cells were suspended at a concentration of 5×10^6 cells/ml in DMEM containing 3% fetal bovine serum and antibiotics. Micromass cultures were initiated by spotting 20 μl of the cell suspensions (1.5×10^5 cells) onto the surface of 24-well tissue culture dishes. After a 90-minute incubation at 37° C. in a humidified CO2 incubator to allow for cell attachment, the cultures were supplied with 0.25 ml of medium. After 24 hours, medium supplemented with the indicated concentrations of Surfen (bis-2-methyl-4-aminoquinolyl-6-carbamide), bacterial heparitinase III (Sigma), recombinant human BMP2 (R&D Systems), recombinant human heparanase, or roneparstat (Sigma-Tau Research S.A.). Fresh reagents (drug and/or protein) were given with medium change every other day. Equivalent amounts of vehicle were added to control cultures. Cultures were stained with Alcian blue (pH 1.0) after four and six days to monitor chondrogenic cell differentiation by standard methods. […]
(§2) Total RNA was extracted from cells by the guanidine phenol method using TRIzol® reagent (Invitrogen) according to the manufacturer's protocols and measured using a NanoDrop. […] Band intensities were quantified by computer-assisted image analysis (ImageQuant™ TL, GE Healthcare).

endogenous heparanase [1] = assay: Immunoblot of endogenous heparanase protein in micromass cultures; type: cell-based, mouse
Description: ATDC5 cells were grown to 100% confluence in 6-well plates and treated with indicated concentrations of Surfen, bis-2-methyl-4-amino-quinolyl-6-carbamide. […] The membranes were re-blotted with antibodies to α-tubulin (Sigma T-5168, 1:2000) for normalization, and band intensities were quantified by computer-assisted image analysis.

endogenous heparanase [2] = assay: Immunoblot of endogenous heparanase protein in ATDC5 cultures; type: cell-based, mouse; settings: compared with the micromass response
Description: ATDC5 cells, derived from mouse embryonal carcinoma, were cultured in 10 cm dishes with a 1:1 mixture of Dulbecco's modified Eagle's medium and Ham's F-12 (Life Technologies) supplemented with 5% fetal bovine serum (ATCC), 10 μg/ml human transferrin (Mediatech), […] sodium selenite (Mediatech), and 20 μg/ml insulin at 37° C. under 5% CO2. Experiments were conducted once cells reached confluence.
ATDC5 cells were grown to 100% confluence in 6-well plates and treated with indicated concentrations of Surfen, bis-2-methyl-4-amino-quinolyl-6-carbamide. Micromass cultures were treated with control vehicle, Surfen, human heparanase, roneparstat, or rhBMP2. At specified time points, total cellular proteins were harvested in SDS-PAGE sample buffer, electrophoresed on 4-15% SDS-Bis-Tris gels (40 μg per lane) and transferred to PVDF membranes (Invitrogen). Membranes were incubated overnight at 4° C. with dilutions of antibodies against phospho-Smad1/5/8 (Cell Signaling Technology 9511, 1:1000), Smad1 (Abcam 63439, 1:500) or human heparanase (Abcam 59787, 1:750). Enhanced chemiluminescent immunoblotting detection system (Pierce) was used to detect the antigen antibody complexes. The membranes were re-blotted with antibodies to α-tubulin (Sigma T-5168, 1:2000) for normalization, and band intensities were quantified by computer-assisted image analysis.

[3] = test system: ADTC5 chondrogenic cell line; settings: Brown et al. 2008; cited from earlier work
[4] = test system: myeloma and sarcoma cells; settings: mouse models; Ritchie 2011, Cassinelli 2013; cited from earlier work
[5] = literature; cited from earlier work
[6] = test system: mesenchymal cells of E11.5 mouse embryo limb buds; assay: Micromass diameter (proliferation/migration of peripheral cells); type: cell-based; settings: day 4 and day 6
Description: as §1, with “S.A.).” for “S.A.). Fresh reagents (drug and/or protein) were given with medium change every other day. Equivalent amounts of vehicle were added to control cultures. Cultures were stained with Alcian blue (pH 1.0) after four and six days to monitor chondrogenic cell differentiation by standard methods.”
(§3) ATDC5 cells were treated at day 0 with human heparanase (400 ng/ml) or a vehicle control. […] DNA isolation was performed using TRIzol® reagent (Invitrogen) according to the manufacturer's protocols and measured using a NanoDrop (ThermoScientific). ATDC5 migration was analyzed via a scratch test. […] The open scratch area was quantified with ImageJ (n=6/treatment group). In micromass cultures, migration was determined by expansion of the micromass itself from day 0 to day 4 or 6. The diameters of untreated micromasses (n=10) were measured and averaged for a baseline size. […]

heparanase = biological target: T1, heparanase (Homo sapiens, UniProt Q9Y251); settings: Ritchie et al. 2011; cited from earlier work
T1 sequence (Q9Y251 158-543 limits assumed): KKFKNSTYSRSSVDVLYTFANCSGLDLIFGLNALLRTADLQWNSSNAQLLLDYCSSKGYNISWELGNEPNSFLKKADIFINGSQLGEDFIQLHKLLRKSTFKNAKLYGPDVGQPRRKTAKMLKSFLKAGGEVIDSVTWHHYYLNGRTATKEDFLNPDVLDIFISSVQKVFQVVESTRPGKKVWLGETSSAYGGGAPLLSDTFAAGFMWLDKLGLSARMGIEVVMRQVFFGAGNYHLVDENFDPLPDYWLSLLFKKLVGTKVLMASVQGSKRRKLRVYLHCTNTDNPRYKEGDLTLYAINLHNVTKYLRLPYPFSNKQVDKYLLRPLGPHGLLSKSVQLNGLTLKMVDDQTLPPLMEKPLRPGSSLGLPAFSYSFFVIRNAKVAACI
T1 sequence (Q9Y251 36-109 limits assumed): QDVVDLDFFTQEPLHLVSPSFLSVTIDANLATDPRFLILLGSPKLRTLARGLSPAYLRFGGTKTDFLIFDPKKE

[7] = test system: collagen II (ColII), aggrecan (Agg) and Runx2; assay: Semi-quantitative RT-PCR of chondrogenic marker genes in micromass cultures; type: cell-based, mouse; settings: micromass day 4 and 6
Description: (§4) Micromass cultures were prepared from the mesenchymal cells of E11.5 mouse embryo limb buds (Ahrens et al. (1979) Dev. Biol., 69:436-50). Dissociated cells were suspended at a concentration of 5×10^6 cells/ml in DMEM containing 3% fetal bovine serum and antibiotics. Micromass cultures were initiated by spotting 20 μl of the cell suspensions […] onto the surface of 24-well tissue culture dishes. After a 90-minute incubation at 37° C. in a humidified CO2 incubator to allow for cell attachment, the cultures were supplied with 0.25 ml of medium. After 24 hours, medium supplemented with the indicated concentrations of Surfen (bis-2-methyl-4-aminoquinolyl-6-carbamide), bacterial heparitinase III (Sigma), recombinant human BMP2 (R&D Systems), recombinant human heparanase, or roneparstat (Sigma-Tau Research S.A.). Fresh reagents (drug and/or protein) were given with medium change every other day. Equivalent amounts of vehicle were added to control cultures. Cultures were stained with Alcian blue (pH 1.0) after four and six days to monitor chondrogenic cell differentiation by standard methods. Micromass analysis was performed using ImageJ. Images were made binary under an RGB threshold, and “Particle Analysis” was utilized to measure nodule size, number, and Alcian blue positive area.
Total RNA was extracted from cells by the guanidine phenol method using TRIzol® reagent (Invitrogen) according to the manufacturer's protocols and measured using a NanoDrop. One μg of total RNA was reverse transcribed using the SuperScript® III First-Strand Synthesis System (Life Technologies). Band intensities for semiquantitative PCR were normalized to GAPDH and compared while band intensities and cycle numbers were linear. […] Band intensities were quantified by computer-assisted image analysis (ImageQuant™ TL, GE Healthcare).

[8] = test system: mesenchymal cells of E11.5 mouse embryo limb buds; assay: Limb bud micromass chondrogenesis, alcian blue staining; type: cell-based; settings: three concentrations up to 20 μg/ml; dose-dependent; day 4 and 6
Description: as §4

[9] = mouse models of diabetic nephropathy; cited from earlier work
[10] = test system: mesenchymal cells of E11.5 mouse embryo limb buds; assay: Cell number, density and whole cellular RNA/DNA content of micromass cultures; type: cell-based
Description: as §1, with “methods. Micromass analysis was performed using ImageJ.” for “methods.”
as §3, §2

Compound: Cc1cc(N)c2cc(NC(=O)Nc3ccc4nc(C)cc(N)c4c3)ccc2n1 [Surfen, bis-2-methyl-4-aminoquinolyl-6-carbamide]
- heparanase mRNA amounts (heparanase mRNA): increased
- increase of endogenous heparanase protein levels (endogenous heparanase [1]; 7.5 μM, limb micromass cultures, immunoblot densitometry): about 8 fold
- endogenous heparanase protein levels in ADTC5 cell cultures (endogenous heparanase [2]): very similar response

Compound: PI-88
- alcian blue staining and cartilage gene expression [3]: only modest reductions

Compound: roneparstat
- growth of myeloma and sarcoma cells and concomitant angiogenesis [4]: interfere with the growth
- anticoagulant properties [5]: without anticoagulant properties
- overall diameter of micromass cultures vs control [6]: reduced the overall diameter
- inhibitory activity on heparanase (heparanase): very strong inhibitory activity
- expression of Runx2 [7]: dose-dependently inhibited
- expression of aggrecan (Agg) [7]: dose-dependently inhibited
- expression of collagen II (ColII) [7]: dose-dependently inhibited
- levels of endogenous heparanase vs untreated control cultures (endogenous heparanase [1]; micromass cultures, immunoblot): reduced
- formation of alcian blue-positive chondrogenic nodules [8]: strongly reduced
- extent of albuminuria and renal damage [9]: markedly decreases
- overall cell number and density (hematoxylin counterstaining) ([10]; after treatment of micromass cultures): had not changed significantly
- whole cellular RNA and DNA content, treated vs untreated ([10]; day 4 and day 6): remained similar
- whole cellular RNA and DNA content ([10]; maximal 20 μg/ml dose): minor decreases
